Marks after values point to notes of the source that are not given here.
Key:
PPARγ = target: T1, PPARγ (Homo sapiens, UniProt P37231); assay: Commercial PPARγ binding assay (Invitrogen, PPAR-LBD/Fluormone PPAR Green complex); conditions: for PPARγ binding signal (fluorescence polarization, Fluormone PPAR Green displacement): mean of three experiments; for Binding to PPARγ (in words): referring to FIG. 1 and Table B
T1 construct: purchased Invitrogen Corporation, Carlsbad, Calif
T1 sequence (P37231 238-503 limits assumed): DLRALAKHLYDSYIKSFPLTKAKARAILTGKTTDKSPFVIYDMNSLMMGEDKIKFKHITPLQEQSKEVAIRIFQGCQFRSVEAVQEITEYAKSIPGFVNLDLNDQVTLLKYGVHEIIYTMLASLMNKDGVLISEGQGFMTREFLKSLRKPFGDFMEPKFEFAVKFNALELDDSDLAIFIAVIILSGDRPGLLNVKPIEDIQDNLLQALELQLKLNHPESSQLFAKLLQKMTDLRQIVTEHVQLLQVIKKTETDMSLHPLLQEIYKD
Method: The ability of several exemplary compounds of the present invention, shown in Table A, to bind to PPARγ was measured using a commercial binding assay (Invitrogen Corporation, Carlsbad, Calif.) that measures the test compounds ability to bind with PPAR-LBD/Fluormone PPAR Green complex. These assays were performed on three occasions with each assay using four separate wells (quadruplicate) at each concentration of tested compound. The data are mean and SEM of the values obtained from the three experiments. […] Compounds were added at the concentrations shown, which range from 0.1-100 micromolar.

Diabetic KKAy mice = assay: Glucose, insulin and triglyceride in diabetic KKAy mice, 4 days oral dosing; format: in vivo; conditions: for Glucose / Insulin / Triglycerides: 93 mg/kg orally for 4 days, fasted, blood approx. 18 hours after last dose, mean and SEM; for Effectiveness at lowering glucose, insulin and triglyceride levels / antidiabetic activity (in words): Table C
Method: The insulin sensitizing and antidiabetic pharmacology are measured in the KKA^Y mice as previously reported [Hofmann, C., Lomez, K., and Colca, J. R. (1991). Glucose transport deficiency corrected by treatment with the oral anti-hyperglycemic agent Pioglitazone. Endocrinology, 129:1915-1925.]. Compounds are formulated in 1% sodium carboxy methylcellulose, and 0.01% tween 20 and dosed daily by oral gavage.
Compounds were formulated by suspension and orally dosed to KKAy mice at 93 mg/kg for 4 days. The compounds were first dissolved in DMSO and then placed into aqueous suspension containing 7-10% DMSO, 1% sodium methylcarboxycellulose, and 0.01% Tween 20. On the fifth day, the mice were fasted and blood samples were obtained approximately 18 hours after the last dose. The parameters were measured by standard assay methods. Data are mean and SEM N=6-12 mice.

SMILES | PPARγ binding signal (fluorescence polarization, Fluormone PPAR Green displacement) (PPARγ; 1 μM compound) | PPARγ binding signal (fluorescence polarization, Fluormone PPAR Green displacement) (PPARγ; 3 μM compound) | PPARγ binding signal (fluorescence polarization, Fluormone PPAR Green displacement) (PPARγ; 10 μM compound) | PPARγ binding signal (fluorescence polarization, Fluormone PPAR Green displacement) (PPARγ; 50 μM compound) | PPARγ binding signal (fluorescence polarization, Fluormone PPAR Green displacement) (PPARγ; 100 μM compound) | PPARγ binding signal (fluorescence polarization, Fluormone PPAR Green displacement) (PPARγ; .1 μM compound) | PPARγ binding signal (fluorescence polarization, Fluormone PPAR Green displacement) (PPARγ; .3 μM compound) | Glucose (Diabetic KKAy mice; N=6-12) | Insulin (Diabetic KKAy mice; N=6-12) | Triglycerides (Diabetic KKAy mice; N=6-12) | Binding to PPARγ (in words) (PPARγ) | Effectiveness at lowering glucose, insulin and triglyceride levels / antidiabetic activity (in words) (Diabetic KKAy mice) | Glucose (Diabetic KKAy mice; N=6-12, 93 mg/kg) [mg/dL] | Insulin (Diabetic KKAy mice; N=6-12, 93 mg/kg) [ng/mL] | Triglycerides (Diabetic KKAy mice; N=6-12, 93 mg/kg) [mg/dL]
CCc1ccc(CCOc2ccc(CC3(C)SC(=O)NC3=O)cc2)nc1 (single isomer, unassigned) [Compound 4] | 234 | 224 | 200 | 122 | 91 | 236 | 230 | – | – | – | – | – | – | – | –
CCc1ccc([C@H](O)COc2ccc(CC3(C)SC(=O)NC3=O)cc2)nc1 (some centres unmarked) [Compound 9] | 239 | 233 | 234 | 189 | 164 | 237 | 237 | 740 ± 37 mg/dL | 14.8 ± 2.5 ng/mL | 354 ± 43 mg/dL | – | – | – | – | –
CCc1ccc([C@@H](O)COc2ccc(CC3(C)SC(=O)NC3=O)cc2)nc1 (some centres unmarked) [Compound 8] | 239 | 241 | 233 | 199 | 186 | 237 | 243 | 756 ± 31 mg/dL | 12.8 ± 2.6 ng/mL | 465 ± 64 mg/dL | – | – | – | – | –
CCc1ccc(C(O)COc2ccc(CC3(C)SC(=O)NC3=O)cc2)nc1 (centres unmarked) [Compound 5] | 228 | 226 | 212 | 132 | 106 | 235 | 230 | – | – | – | – | – | – | – | –
CCc1ccc([C@@H](O)COc2ccc(CC3SC(=O)NC3=O)cc2)nc1 (some centres unmarked) [Compound 2] | 238 | 236 | 223 | 162 | 136 | 231 | 233 | 428 +/− 17* mg/dl | 5.7 +/− 1.6* ng/ml | 187 +/− 29* mg/dl | particularly poor binders | equivalent antidiabetic activity | – | – | –
CCc1ccc(CCOc2ccc(CC3(C)SC(=O)NC3=O)cc2)nc1 (single isomer, unassigned) [Compound 6] | 233 | 223 | 198 | 126 | 99 | 246 | 246 | – | – | – | better PPARγ binding compounds | not as effective as compounds 1 and 2 | 694 ± 63 | 11.1 ± 1.6 | 298 ± 49
CCc1ccc(C(=CC(=O)OC)COc2ccc(CC3SC(=O)NC3=O)cc2)nc1 (centres unmarked) [Compound 11] | 232 | 229 | 165 | 128 | 78 | 230 | 227 | 662 ± 40 mg/dL | 18.9 ± 1.6 ng/mL | 476 ± 106 mg/dL | – | – | – | – | –
CCc1ccc(C(=CCO)COc2ccc(CC3SC(=O)NC3=O)cc2)nc1 (centres unmarked) [Compound 13] | 229 | 230 | 204 | 148 | 108 | 244 | 243 | – | – | – | – | – | – | – | –
CCc1ccc(CCOc2ccc(CC3(C)SC(=O)NC3=O)cc2)nc1 (single isomer, unassigned) [Compound 7] | 248 | 237 | 210 | 144 | 105 | 249 | 246 | – | – | – | better PPARγ binding compounds | not as effective as compounds 1 and 2 | 631 ± 7 | 16.3 ± 1.2 | 374 ± 15
CCc1ccc(C(=O)COc2ccc(CC3(C)SC(=O)NC3=O)cc2)nc1 (centres unmarked) [Compound 10] | 240 | 234 | 219 | 126 | 93 | 245 | 239 | – | – | – | – | – | – | – | –
CCc1ccc(C(COc2ccc(CC3SC(=O)NC3=O)cc2)CC(=O)OC)nc1 (centres unmarked) [Compound 12] | 198 | 155 | 112 | 80 | 85 | 243 | 222 | – | – | – | – | – | – | – | –
